Results: patent publication US6048894A, “Substituted amide derivatives” (Banyu Pharmaceutical Co., Ltd., priority 1996, dated 2000)

Target: T1, protein-farnesyl transferase (PFT) (Rattus norvegicus, UniProt Q02293+Q04631)
T1 construct: a soluble fraction of rat's brain was fractionated; from tissue; host or cells: rat brain, soluble fraction, 30-50% ammonium sulfate cut, Q-Sepharose chromatography
Experiment: Inhibitory activities against protein-farnesyl transferase (PFT), IC50
Format: biochemical
Settings: PFT from rat brain (Q-sepharose fraction); prenyl acceptor H-ras protein or biotin-added Lys-Thr-Ser-Cys-Val-Ile-Met (not stated which for Table 1); [3H]-FPP 0.6 μM; 37° C., 20 min; read-out: 50% inhibitory concentrations against PFT activities, IC50
Experimental: PFT was separated in such a manner that a soluble fraction of rat's brain was fractionated by means of 30%-50% saturated ammonium sulfate, further dialyzed and then subjected to column chromatography by Q-sepharose™ (manufactured by Pharmacia) (Reiss et al., Cell, vol. 62, pp. 81-88 (1990)).
Measurement of PFT activities was conducted by using, as a prenyl acceptor, H-ras protein or a peptide corresponding to the C-terminal 7 amino acid residues of K-rasB protein which had biotin added to the N-terminal (biotin-added Lys-Thr-Ser-Cys-Val-Ile-Met) and, as a prenyl donor, [^3 H]-labeled farnesyl pyrophosphate (FPP) (Reiss et al., Methods: A companion to Methods in Enzymology, vol. 1, No. 3, pp. 241-245 (1990)).
The [^3 H]-labeled farnesyl pyrophosphate (22.5 Ci/mmol) was purchased from New England Nuclear Co. Non-labeled farnesyl pyrophosphate was chemically synthesized from ditrethylammonium phosphate, trans-trans-farnesol and trichloroacetonitrile and purified by a XAD-2-resin column and diethylaminoethylcellulose (Cornforth et al., Methods in Enzymology, vol. 15, pp. 385-390 (1969)). […]
The enzymatic reaction product containing H-ras protein as the prenyl acceptor, was analyzed by SDS-PAGE (sodium dodecyl sulfate/polyacrylamide gel electrophoresis). […]
The measurement of PFT activities using H-ras protein as the prenyl receptor, was also analyzed by a rapid separate method. […]

IC50 [nM]	Compound
3.1	CCOC(=O)C(CC(=O)O)=C(O)C(=O)N(Cc1ccc2ccccc2c1)[C@H](C)[C@@H](Cc1ccc(C(=O)Nc2ccccc2)o1)C(=O)OC(C)C (racemic) [Example 2, 3-(ethoxycarbonyl)-4-hydroxy-4-[N-[(1RS,2RS)-2-(isopropoxycarbonyl)-1-methyl-3-{5-(phenylcarbamoyl)-2-furyl}propyl]-N-(2-naphthylmethyl)carbamoyl]-3-butenoic acid]
7.8	CCOC(=O)/C=C/[C@@H](Cc1ccc(C(=O)Nc2ccccc2)o1)[C@@H](C)N(Cc1ccc2ccccc2c1)C(=O)C(O)=C(CC(=O)O)C(=O)OCC (relative stereo) [Example 4]
